Source: US8334403B1, “C-lysine conjugates as pH-controlled, light-activated reagents for double stranded DNA cleavage and associated methods” (Florida State University Research Foundation, Inc., priority 2005, dated 2012)

Tests used:
[1] = test system: three human clear cell renal cell carcinoma (RCC) cell lines (UMRC3, UMRC6, 786-O); experiment: RCC cell proliferation assay, three cell lines together; format: cell-based; conditions: 10 μM
Method: FIG. 23 provides the results of cell proliferation assays using three different RCC cell lines: (a) UMRC3, (b) UMRC6 and (c) 786-O, and compounds I-5; RCC cells were resuspended in media and treated with UV radiation (350 nm) for 10 minutes with and without indicated compounds; control cells were exposed to the indicated compound 1-5 at final concentration of 10 μM; cell numbers determined after 72 hours as described in the SI Section;
The ability of compounds 1-5 to inhibit cell proliferation in three human clear cell renal cell carcinoma (RCC) cell lines was tested in the dark and under photoactivation (FIG. 23). No difference was detected in the control experiments between cells not exposed to UV versus those that were exposed to UV at 350 nm for 10 minutes in any of the three RCC cell lines tested (FIG. 23 A, B & C; first two columns).

[2] = UV-absorption titration determination of pKa; format: physicochemical; conditions: absorption; α-amino group (4, 6), ε-amino group (7)
Method: (§1) General information. ^1H, ^13C and ^19F NMR were collected on a Varian Gemini 300 MHz NMR spectrometer and a Bruker 300 MHz NMR spectrometer. Mass spectrometry data was collected on a Jeol JMS-600H. UV spectra were recorded on a Shimadzu UV-2100. Fluorescence spectra were obtained with SPEX FluoMax spectrofluorimeter using right-angle geometry. pH was adjusted with AB 15 plus pH meter (Accument) after standardization at 25° C. All buffers were prepared and pH-adjusted at room temperature (25° C.). Plasmid DNA Photocleavage. pBR322 plasmid DNA (4,361 b/p; from BioLabs Inc., 1 μg/μL solution in 10 mM Tris-HCl (pH 8.0), and 1 mM EDTA buffer) was diluted to a concentration of 0.01 μg/μL. The solution containing cleavage agent, DNA (30 μM/bp) in 20 mM sodium phosphate buffer was incubated for 1 hour at 30° C. Samples were placed on ice at a distance of 20 cm from 200 W Hg—Xe lamp (Spectra-Physics, Laser & Photonics Oriel Instruments with long pass filter with 324 nm cut-off wavelength). Electrophoretic Analysis. The gel electrophoresis was carried out in 1×TBE buffer at 80 V using Miligel FisherBiotech Horizontal Electrophoresis System. All gels were run on 1% agarose slab gels. Before loading, the DNA samples were mixed with 0.33 volume of tracking dye containing bromophenol blue (0.25%) and glycerol (30%) in water. After staining in ethidium bromide solution (2 μg/ml) for 1 hour, the gel was washed with water and pictures were taken with Polaroid 3000ISO type 667 film. The relative quantities of the supercoiled, nicked, and linear DNA were calculated by integrating the “area” of each spot by the image analyzer software Total/Lab (Nonlinear Dynamics Ltd., UK). The amount of supercoiled DNA was multiplied by factor of 1.4 to account for reduced ethidium bromide intercalation into supercoiled DNA. pH titration by ^1H-NMR. pH* of compound 8 (3 mM) solution in D2O containing 0.05 wt % 3-(trimethylsilyl)propionic-2,2,3,3-d4 acid, sodium salt (TSP-d4) was adjusted with 10 wt % DCI and NaOD in D2O at 25° C. under argon purged condition. Spectrometric determinations of pKa. pH of 10 μM of compound solution in H2O was adjusted with 10, 100 mM HCl (aq) and NaOH (aq) solution under argon purged condition. Excitation wavelength was 330 nm and polymethacrylate fluorimeter cuvettes were used. Absorbance and fluorescence titration with DNA. The concentrations of calf thymus DNA stock solution was determined spectophotometrically using the following molar absorptovity values: 1.32×10^4 M^−1 cm^−1 (per base pair) at 260 nm. All experiments were done in 20 mM sodium phosphate buffer at 25° C. and polymethacrylate fluorimeter cuvettes were used. The same amount of DNA was added to both sample and reference cuvettes during UV/Vis titration. Determination of excited state lifetimes. The concentration of compound solution was 10 μM in 20 mM sodium phosphate buffer. The photoluminescence lifetime measurements were conducted by exciting the samples with the output of a Nd:VO—4 (Spectra-Physics Vanguard, 2 W, 532 nm, 76 MHz, 10 ps) pumped R6G dye laser (Coherent 702-1). The output of the dye laser (600 nm, Rhodamine 6G) was cavity dumped at 1.9 MHz and frequency doubled using a BBO crystal to excite the fluorophore (the excitation wavelength used was 290 nm). Samples were excited with <1 mW power and the emission was collected at right angles onto a Chromex S3 500 is 0.5 m imaging monochromator with a 50 g/mm grating and 0.5 nm resolution. […]

[3] = test system: pBR322 plasmid DNA; experiment: Plasmid relaxation assay: DNA photocleavage of supercoiled plasmid under UV irradiation; format: biochemical; conditions: pH 6, 15 μM, 10 min of UV irradiation
Method: General information. ^1H, ^13C and ^19F NMR were collected on a Varian Gemini 300 MHz NMR spectrometer and a Bruker 300 MHz NMR spectrometer. Mass spectrometry data was collected on a Jeol JMS-600H. UV spectra were recorded on a Shimadzu UV-2100. Fluorescence spectra were obtained with SPEX FluoMax spectrofluorimeter using right-angle geometry. pH was adjusted with AB 15 plus pH meter (Accument) after standardization at 25° C. All buffers were prepared and pH-adjusted at room temperature (25° C.). Plasmid DNA Photocleavage. pBR322 plasmid DNA (4,361 b/p; from BioLabs Inc., 1 μg/μL solution in 10 mM Tris-HCl (pH 8.0), and 1 mM EDTA buffer) was diluted to a concentration of 0.01 μg/μL. The solution containing cleavage agent, DNA (30 μM/bp) in 20 mM sodium phosphate buffer was incubated for 1 hour at 30° C. Samples were placed on ice at a distance of 20 cm from 200 W Hg—Xe lamp (Spectra-Physics, Laser & Photonics Oriel Instruments with long pass filter with 324 nm cut-off wavelength). Electrophoretic Analysis. The gel electrophoresis was carried out in 1×TBE buffer at 80 V using Miligel FisherBiotech Horizontal Electrophoresis System. All gels were run on 1% agarose slab gels. Before loading, the DNA samples were mixed with 0.33 volume of tracking dye containing bromophenol blue (0.25%) and glycerol (30%) in water. After staining in ethidium bromide solution (2 μg/ml) for 1 hour, the gel was washed with water and pictures were taken with Polaroid 3000ISO type 667 film. The relative quantities of the supercoiled, nicked, and linear DNA were calculated by integrating the “area” of each spot by the image analyzer software Total/Lab (Nonlinear Dynamics Ltd., UK). The amount of supercoiled DNA was multiplied by factor of 1.4 to account for reduced ethidium bromide intercalation into supercoiled DNA. pH titration by ^1H-NMR. pH* of compound 8 (3 mM) solution in D2O containing 0.05 wt % 3-(trimethylsilyl)propionic-2,2,3,3-d4 acid, sodium salt (TSP-d4) was adjusted with 10 wt % DCI and NaOD in D2O at 25° C. under argon purged condition. Spectrometric determinations of pKa. pH of 10 μM of compound solution in H2O was adjusted with 10, 100 mM HCl (aq) and NaOH (aq) solution under argon purged condition. Excitation wavelength was 330 nm and polymethacrylate fluorimeter cuvettes were used. Absorbance and fluorescence titration with DNA. The concentrations of calf thymus DNA stock solution was determined spectophotometrically using the following molar absorptovity values: 1.32×10^4 M^−1 cm^−1 (per base pair) at 260 nm. All experiments were done in 20 mM sodium phosphate buffer at 25° C. and polymethacrylate fluorimeter cuvettes were used. The same amount of DNA was added to both sample and reference cuvettes during UV/Vis titration. Determination of excited state lifetimes. The concentration of compound solution was 10 μM in 20 mM sodium phosphate buffer. The photoluminescence lifetime measurements were conducted by exciting the samples with the output of a Nd:VO—4 (Spectra-Physics Vanguard, 2 W, 532 nm, 76 MHz, 10 ps) pumped R6G dye laser (Coherent 702-1). The output of the dye laser (600 nm, Rhodamine 6G) was cavity dumped at 1.9 MHz and frequency doubled using a BBO crystal to excite the fluorophore (the excitation wavelength used was 290 nm). Samples were excited with <1 mW power and the emission was collected at right angles onto a Chromex S3 500 is 0.5 m imaging monochromator with a 50 g/mm grating and 0.5 nm resolution. Output of the monochromator is focused into a Hamamatsu C5680 streak camera operating at a 20 ns window for the fluorophore. Intensity analysis was carried out by integrating the spectral profile in time on the streak camera. Lifetime analysis over 6-7 lifetimes of the fluorophore was conducted by binning the photoluminescence intensity collected on the streak camera over a 20 nm spectral window at the centroid value of the emission of the fluorophore. Ethidium bromide displacement. […]

[4] = Fluorometric (emission) determination of pKa; format: physicochemical; conditions: emission; α-amino group (4, 6), ε-amino group (7)
Method: as §1

Question: With Cl.Cl.NCCCC[C@H](N)C(=O)Nc1ccc(C#Cc2ccccc2)cc1 [Compound 5, (S)-2,6-Diaminohexanoic acid [4-(phenylethynyl)-phenyl]-amide dihydrochloride] as the molecule, how does the “cytotoxicity in the dark” value [1] read?
Answer: Its value is “considerably less cytotoxic in the dark”.

Question: With C[C@H](N)C(=O)Nc1ccc(C#Cc2c(F)c(F)nc(F)c2F)cc1.Cl [Compound 6, (S)-2-Amino-propanoic acid [4-(2,3,5,6-tetrafluoro-pyridin-4-ylethynyl)-phenyl]-amide hydrochloride] as the molecule, how does the pKa1 [2] read?
Answer: The pKa1 was 7.4.

Question: And the ds-cleavage [3]?
Answer: The ds-cleavage was “do not produce any ds-cleavage”.

Question: What about the pKa1 [4] of the same molecule?
Answer: The pKa1 was 7.6.
